From patent US10342782B2, “Positive allosteric modulators of the muscarinic acetylcholine receptor M4” (Vanderbilt University, priority 2016, dated 2019) come the findings set out here.

This assay addresses T1, Human M4 (Homo sapiens, UniProt P08173).
T1 sequence (P08173 1-479): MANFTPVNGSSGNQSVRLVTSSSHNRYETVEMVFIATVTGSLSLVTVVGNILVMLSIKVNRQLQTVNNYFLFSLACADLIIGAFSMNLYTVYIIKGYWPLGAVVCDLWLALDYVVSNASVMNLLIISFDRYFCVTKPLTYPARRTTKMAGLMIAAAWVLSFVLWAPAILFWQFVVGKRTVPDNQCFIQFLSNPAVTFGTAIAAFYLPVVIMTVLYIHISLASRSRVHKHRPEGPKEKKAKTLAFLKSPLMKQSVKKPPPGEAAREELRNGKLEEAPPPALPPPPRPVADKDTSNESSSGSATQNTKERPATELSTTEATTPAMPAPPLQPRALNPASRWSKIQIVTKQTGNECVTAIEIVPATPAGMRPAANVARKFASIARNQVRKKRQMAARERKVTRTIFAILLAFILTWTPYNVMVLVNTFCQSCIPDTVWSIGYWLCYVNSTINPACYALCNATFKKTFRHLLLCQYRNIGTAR
The assay is described as follows: cell-based. The note with it: for Emax: CHO-K1.

Experimental: Human M4 cDNA, along with the chimeric G protein Gqi5, were transfected into Chinese hamster ovary (CHO-K1) cells purchased from the American Type Culture Collection using Lipofectamine2000. M4/Gqi5/CHO cells were grown in Ham's F-12 medium containing 10% heat-inactivated fetal bovine serum (FBS), 20 mM HEPES, 500 μg/mL G418 sulfate, and 200 μg/mL Hygromycin B.
For high throughput measurement of agonist-evoked increases in intracellular calcium, CHO-K1 cells stably expressing muscarinic receptors were plated in growth medium lacking G418 and hygromycin at 15,000 cells/20 μL/well in Greiner 384-well black-walled, tissue culture (TC)-treated, clear-bottom plates (VWR). Cells were incubated overnight at 37° C. and 5% CO2. […] Test compound CRCs were then transferred to daughter plates (240 nL) using the Echo acoustic plate reformatter (Labcyte, Sunnyvale, Calif.) and then diluted into assay buffer (40 μL) to a 2× stock using a Thermo Fisher Combi (Thermo Fisher Scientific, Waltham, Mass.).
Calcium flux was measured using the Functional Drug Screening System (FDSS) 6000 or 7000 (Hamamatsu Corporation, Tokyo, Japan) as an increase in the fluorescent static ratio. Compounds were applied to cells (20 μL, 2×) using the automated system of the FDSS at 2-4 s into the protocol and the data were collected at 1 Hz. […] Agonist activity was analyzed as a concentration-dependent increase in calcium mobilization upon compound addition. Positive allosteric modulator activity was analyzed as a concentration-dependent increase in the EC20 acetylcholine response. Antagonist activity was analyzed as a concentration-dependent decrease in the EC80 acetylcholine response. Concentration-response curves were generated using a four-parameter logistical equation in XLFit curve fitting software (IDBS, Bridgewater, N.J.) for Excel (Microsoft, Redmond, Wash.) or Prism (GraphPad Software, Inc., San Diego, Calif.).

Regarding `Cc1nc2cc(C)c3c(N)c(C(=O)NC4CN(c5ncc(C6CC6)cc5C)C4)sc3n2n1` [Compound 9, 6-amino-N-(1-(5-cyclopropyl-3-methylpyridin-2-yl)azetidin-3-yl)-2,5-dimethylthieno[3,2-e][1,2,4]triazolo[1,5-a]pyridine-7-carboxamide], the EC50 came out at 863 nM and the Emax is 79%.

On to `Cc1nc2cc(C)c3c(N)c(C(=O)N[C@@H]4CCN(c5ccc(F)cn5)C4)sc3n2n1` [Compound 15, (R)-6-amino-N-(1-(5-fluoropyridin-2-yl)pyrrolidin-3-yl)-2,5-dimethylthieno[3,2-e][1,2,4]triazolo[1,5-a]pyridine-7-carboxamide], for which the EC50 was 1200 nM and the Emax worked out at 43%.

`Cc1nc2cc(C)c3c(N)c(C(=O)N[C@H]4CCN(c5ccc(F)cn5)C4)sc3n2n1` [Compound 12, (S)-6-amino-N-(1-(5-fluoropyridin-2-yl)pyrrolidin-3-yl)-2,5-dimethylthieno[3,2-e][1,2,4]triazolo[1,5-a]pyridine-7-carboxamide] yielded a 50% effective concentration (EC50) of 596 nM and an Emax of 66%.

For `Cc1nc2cc(C)c3c(N)c(C(=O)NCc4ccc(N5CCN(C)CC5)cc4)sc3n2n1` [Compound 8, 6-amino-2,5-dimethyl-N-(4-(4-methylpiperazin-1-yl)benzyl)thieno[3,2-e][1,2,4]triazolo[1,5-a]pyridine-7-carboxamide], the midpoint of the response, the EC50, lay at 217 nM and the Emax was 86%.
